Assay results reported in ChEMBL document CHEMBL6103581, “Identification of Thieno[3,2-d]pyrimidine derivatives as potent and selective Janus Kinase 1 inhibitors” (Eur J Med Chem, 2025).
Active and inactive are the calls of the source. The rule behind the calls is not given here.

How the values were obtained:
[1] = system: NCI-H2087; experiment: Inhibition of colony formation in human NCI-H2087 cells at 10 uM incubated for 14 days by crystal violet staining based 2D colony formation assay relative to control; format: functional; conditions: NCI-H2087, 336 h, time 14 day
[2] = system: NCI-H1975; experiment: Inhibition of colony formation in human NCI-H1975 cells at 10 uM incubated for 14 days by crystal violet staining based 2D colony formation assay relative to control; format: functional; conditions: NCI-H1975, 336 h, time 14 day
[3] = system: NCI-H1975; experiment: Antiproliferative activity against human NCI-H1975 cells assessed as cell growth inhibition incubated for 72 hrs by Cell-TiterGlo assay; format: functional
[4] = target: Signal transducer and activator of transcription 3 (Homo sapiens) (UniProt P40763); experiment: Inhibition of STAT3 phosphorylation in human NCI-H1975 cells incubated for 1 hr by Western blot analysis; format: cell-based; conditions: dose 1-10 µM
[5] = target: Receptor-type tyrosine-protein kinase FLT3 (Homo sapiens) (UniProt P36888); experiment: Inhibition of human FLT3 at 0.1 uM preincubated for 20 min followed by 33P-ATP addition measured after 2 hrs by P81 filter-binding method relative to control; conditions: time 140.0 min
[6] = target: Signal transducer and activator of transcription 3 (Homo sapiens) (UniProt P40763); experiment: Inhibition of STAT3 phosphorylation in human NCI-H2087 cells incubated for 1 hr by Western blot analysis; format: cell-based; conditions: dose 1-10 µM
[7] = system: NCI-H2087; experiment: Antiproliferative activity against human NCI-H2087 cells assessed as cell growth inhibition incubated for 72 hrs by Cell-TiterGlo assay; format: functional
[8] = system: NCI-H2087; experiment: Upregulation of STAT3 phosphorylation level in human NCI-H2087 cells; format: functional, cell-based
[9] = target: T1, Tyrosine-protein kinase JAK3 (Homo sapiens, UniProt P52333); experiment: Inhibition of N-terminal GST-tagged human recombinant JAK3 (781 to end residues) extracted from baculovirus infected in Sf9 cells using Poly(4:1 Glu, Tyr) as substrate preincubated for 15 min followed by substrate addition and measured after 1 hr by ADP-Glo kinase assay
T1 sequence (P52333 whole entry): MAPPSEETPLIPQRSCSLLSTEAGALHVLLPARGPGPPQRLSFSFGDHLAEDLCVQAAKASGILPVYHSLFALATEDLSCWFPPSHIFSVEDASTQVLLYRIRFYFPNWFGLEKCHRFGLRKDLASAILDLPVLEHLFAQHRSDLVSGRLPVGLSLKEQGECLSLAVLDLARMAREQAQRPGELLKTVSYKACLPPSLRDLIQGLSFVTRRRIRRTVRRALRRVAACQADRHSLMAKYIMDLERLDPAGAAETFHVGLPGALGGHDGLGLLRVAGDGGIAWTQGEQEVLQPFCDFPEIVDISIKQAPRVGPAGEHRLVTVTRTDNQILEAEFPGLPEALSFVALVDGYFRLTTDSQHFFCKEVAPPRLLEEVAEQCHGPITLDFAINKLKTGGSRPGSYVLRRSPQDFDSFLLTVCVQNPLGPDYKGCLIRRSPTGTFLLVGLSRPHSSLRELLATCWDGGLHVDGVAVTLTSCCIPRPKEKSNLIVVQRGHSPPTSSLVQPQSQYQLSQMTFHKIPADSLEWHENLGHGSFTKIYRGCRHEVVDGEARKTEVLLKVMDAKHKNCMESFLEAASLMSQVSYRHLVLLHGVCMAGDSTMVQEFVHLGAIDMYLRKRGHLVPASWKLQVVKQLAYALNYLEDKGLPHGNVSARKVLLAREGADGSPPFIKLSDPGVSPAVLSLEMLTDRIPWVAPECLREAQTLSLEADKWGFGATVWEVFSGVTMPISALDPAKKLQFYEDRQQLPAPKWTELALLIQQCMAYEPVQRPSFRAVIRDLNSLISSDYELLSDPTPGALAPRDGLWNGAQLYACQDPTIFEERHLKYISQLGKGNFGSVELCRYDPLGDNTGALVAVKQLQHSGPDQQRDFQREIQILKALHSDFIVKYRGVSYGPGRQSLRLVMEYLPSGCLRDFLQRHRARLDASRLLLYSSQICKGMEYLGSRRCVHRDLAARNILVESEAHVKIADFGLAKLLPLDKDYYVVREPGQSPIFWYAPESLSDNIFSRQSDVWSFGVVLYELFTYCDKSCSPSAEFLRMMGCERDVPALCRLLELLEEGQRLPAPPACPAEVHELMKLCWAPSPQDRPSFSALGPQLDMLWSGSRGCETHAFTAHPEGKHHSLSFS

[10] = target: T2, Aurora kinase C (Homo sapiens) (UniProt Q9UQB9); experiment: Inhibition of human Aurora C at 0.1 uM preincubated for 20 min followed by 33P-ATP addition measured after 2 hrs by P81 filter-binding method relative to control; conditions: time 140.0 min
T2 sequence (whole entry): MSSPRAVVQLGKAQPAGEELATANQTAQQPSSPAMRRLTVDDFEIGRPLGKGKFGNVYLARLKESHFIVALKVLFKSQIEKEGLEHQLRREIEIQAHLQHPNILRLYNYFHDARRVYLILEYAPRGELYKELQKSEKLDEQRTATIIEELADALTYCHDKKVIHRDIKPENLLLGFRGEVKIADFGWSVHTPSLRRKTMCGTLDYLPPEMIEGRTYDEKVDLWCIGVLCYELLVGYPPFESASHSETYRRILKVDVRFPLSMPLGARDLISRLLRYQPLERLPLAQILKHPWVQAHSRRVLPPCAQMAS

[11] = Antiproliferative activity against mouse Ba/F3-TEL-JAK1 cells assessed as cell growth inhibition incubated for 72 hrs by Cell-TiterGlo assay; format: functional
[12] = target: T3, Tyrosine-protein kinase JAK3 (Homo sapiens) (UniProt P52333); experiment: Inhibition of human JAK3 at 0.1 uM preincubated for 20 min followed by 33P-ATP addition measured after 2 hrs by P81 filter-binding method relative to control; conditions: time 140.0 min
T3 sequence (whole entry): T1 sequence (P52333 whole entry)

[13] = system: NCI-H2087; experiment: Antiproliferative activity against human NCI-H2087 cells overexpressing JAK1 assessed as suppression of cell growth incubated for 72 hrs by Cell-TiterGlo assay; format: functional, cell-based
[14] = system: NCI-H1975; experiment: Synergistic antiproliferative activity against human NCI-H1975 cells assessed as cell growth inhibition measured after 48 hrs in presence of osimertinib by celltiterglo analysis; format: functional, cell-based
[15] = system: NCI-H1975; experiment: Upregulation of STAT3 phosphorylation level in human NCI-H1975 cells; format: functional, cell-based
[16] = system: BaF3; experiment: Antiproliferative activity against mouse parental BaF3 cells assessed as cell growth inhibition incubated for 72 hrs by Cell-TiterGlo assay; format: functional
[17] = system: NCI-H1975; experiment: Induction of cell cycle arrest in human NCI-H1975 cells assessed as accumulation of cells at G2/M phase at 1 to 10 uM incubated for 24 hrs by propidium iodide/RNase staining based analysis; format: functional; conditions: dose 1-10 µM
[18] = system: HT-29; experiment: Antiproliferative activity against human HT-29 cells overexpressing JAK1 assessed as suppression of cell growth incubated for 72 hrs by Cell-TiterGlo assay; format: functional, cell-based
[19] = system: NCI-H2087; experiment: Induction of apoptosis in human NCI-H2087 cells at 1 to 10 uM incubated for 24 hrs by Annexin V/Propidium iodide staining based analysis; format: functional, cell-based; conditions: dose 1-10 µM
[20] = target: T4, Tyrosine-protein kinase JAK2 (Homo sapiens, UniProt O60674); experiment: Inhibition of N-terminal GST-tagged human recombinant JAK2 (804 to end residues) extracted from baculovirus infected in Sf9 cells using IGF1Rtide as substrate preincubated for 15 min followed by substrate addition and measured after 1 hr by ADP-Glo kinase assay
[21] = system: NCI-H1975; experiment: Antiproliferative activity against human NCI-H1975 cells overexpressing JAK1 assessed as suppression of cell growth incubated for 72 hrs by Cell-TiterGlo assay; format: functional, cell-based
[22] = target: T4, Tyrosine-protein kinase JAK2; experiment: Inhibition of human JAK2 at 0.1 uM preincubated for 20 min followed by 33P-ATP addition measured after 2 hrs by P81 filter-binding method relative to control; conditions: time 140.0 min
[23] = system: U2OS; experiment: Antiproliferative activity against human U2OS cells overexpressing JAK1 assessed as suppression of cell growth incubated for 72 hrs by Cell-TiterGlo assay; format: functional, cell-based
[24] = system: NCI-H1975; experiment: Induction of apoptosis in human NCI-H1975 cells at 1 to 10 uM incubated for 24 hrs by Annexin V/Propidium iodide staining based analysis; format: functional, cell-based; conditions: dose 1-10 µM
[25] = target: Non-receptor tyrosine-protein kinase TYK2 (Homo sapiens) (UniProt P29597); experiment: Inhibition of human TYK2 at 0.1 uM preincubated for 20 min followed by 33P-ATP addition measured after 2 hrs by P81 filter-binding method relative to control; conditions: time 140.0 min
[26] = system: HCT-116; experiment: Antiproliferative activity against human HCT-116 cells overexpressing JAK1 assessed as suppression of cell growth incubated for 72 hrs by Cell-TiterGlo assay; format: functional, cell-based
[27] = system: NCI-H2087; experiment: Induction of cell cycle arrest in human NCI-H2087 cells assessed as accumulation of cells at G2/M phase at 1 to 10 uM incubated for 24 hrs by propidium iodide/RNase staining based analysis; format: functional; conditions: dose 1-10 µM
[28] = system: UMUC3; experiment: Antiproliferative activity against human UMUC3 cells overexpressing JAK1 assessed as suppression of cell growth incubated for 72 hrs by Cell-TiterGlo assay; format: functional, cell-based
[29] = system: NCI-H2087; experiment: Inhibition of colony formation in human NCI-H2087 cells at 10 uM incubated for 14 days by crystal violet staining based 2D colony formation assay; format: functional, cell-based; conditions: time 14.0 day
[30] = target: Tyrosine-protein kinase JAK1 (Homo sapiens, UniProt P23458); experiment: Inhibition of N-terminal GST-tagged human recombinant JAK1 (438 to end residues) extracted from baculovirus infected in Sf9 cells using KKHTDDGYMPMSPGVA as substrate preincubated for 15 min followed by substrate addition and measured after 1 hr by ADP-Glo kinase assay
[31] = system: NCI-H1975; experiment: Inhibition of colony formation in human NCI-H1975 cells at 10 uM incubated for 14 days by crystal violet staining based 2D colony formation assay; format: functional, cell-based; conditions: time 14.0 day

T4 sequence (O60674 whole entry): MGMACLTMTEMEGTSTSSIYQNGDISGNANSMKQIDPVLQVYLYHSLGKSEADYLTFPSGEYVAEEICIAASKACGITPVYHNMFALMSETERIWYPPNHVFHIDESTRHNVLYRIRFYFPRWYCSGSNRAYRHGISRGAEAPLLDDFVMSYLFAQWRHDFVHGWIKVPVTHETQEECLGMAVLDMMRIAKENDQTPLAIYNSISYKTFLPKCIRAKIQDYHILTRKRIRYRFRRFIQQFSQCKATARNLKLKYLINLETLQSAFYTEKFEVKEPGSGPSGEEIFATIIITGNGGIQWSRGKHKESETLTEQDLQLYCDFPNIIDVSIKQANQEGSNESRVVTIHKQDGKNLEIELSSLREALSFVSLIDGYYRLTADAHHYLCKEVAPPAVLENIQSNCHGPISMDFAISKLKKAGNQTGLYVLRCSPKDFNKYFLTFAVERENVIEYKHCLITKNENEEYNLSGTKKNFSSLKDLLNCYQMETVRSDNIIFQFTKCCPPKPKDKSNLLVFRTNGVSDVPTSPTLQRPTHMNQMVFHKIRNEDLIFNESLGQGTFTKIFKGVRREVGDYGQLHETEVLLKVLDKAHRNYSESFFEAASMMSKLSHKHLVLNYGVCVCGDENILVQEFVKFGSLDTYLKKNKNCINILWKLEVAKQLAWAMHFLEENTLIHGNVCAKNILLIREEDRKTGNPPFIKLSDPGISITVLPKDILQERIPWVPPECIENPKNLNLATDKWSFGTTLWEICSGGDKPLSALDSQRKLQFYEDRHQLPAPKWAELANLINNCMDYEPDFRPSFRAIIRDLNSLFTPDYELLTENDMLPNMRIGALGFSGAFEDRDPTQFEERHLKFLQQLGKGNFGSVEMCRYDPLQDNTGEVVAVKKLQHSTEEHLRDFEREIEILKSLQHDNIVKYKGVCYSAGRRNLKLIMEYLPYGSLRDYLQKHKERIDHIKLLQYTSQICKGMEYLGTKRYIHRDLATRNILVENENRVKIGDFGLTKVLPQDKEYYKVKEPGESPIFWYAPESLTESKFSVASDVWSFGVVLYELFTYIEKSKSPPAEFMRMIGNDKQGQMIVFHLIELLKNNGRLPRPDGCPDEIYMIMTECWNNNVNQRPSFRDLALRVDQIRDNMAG
Signal transducer and activator of transcription 3 (Homo sapiens), sequence (P40763 whole entry): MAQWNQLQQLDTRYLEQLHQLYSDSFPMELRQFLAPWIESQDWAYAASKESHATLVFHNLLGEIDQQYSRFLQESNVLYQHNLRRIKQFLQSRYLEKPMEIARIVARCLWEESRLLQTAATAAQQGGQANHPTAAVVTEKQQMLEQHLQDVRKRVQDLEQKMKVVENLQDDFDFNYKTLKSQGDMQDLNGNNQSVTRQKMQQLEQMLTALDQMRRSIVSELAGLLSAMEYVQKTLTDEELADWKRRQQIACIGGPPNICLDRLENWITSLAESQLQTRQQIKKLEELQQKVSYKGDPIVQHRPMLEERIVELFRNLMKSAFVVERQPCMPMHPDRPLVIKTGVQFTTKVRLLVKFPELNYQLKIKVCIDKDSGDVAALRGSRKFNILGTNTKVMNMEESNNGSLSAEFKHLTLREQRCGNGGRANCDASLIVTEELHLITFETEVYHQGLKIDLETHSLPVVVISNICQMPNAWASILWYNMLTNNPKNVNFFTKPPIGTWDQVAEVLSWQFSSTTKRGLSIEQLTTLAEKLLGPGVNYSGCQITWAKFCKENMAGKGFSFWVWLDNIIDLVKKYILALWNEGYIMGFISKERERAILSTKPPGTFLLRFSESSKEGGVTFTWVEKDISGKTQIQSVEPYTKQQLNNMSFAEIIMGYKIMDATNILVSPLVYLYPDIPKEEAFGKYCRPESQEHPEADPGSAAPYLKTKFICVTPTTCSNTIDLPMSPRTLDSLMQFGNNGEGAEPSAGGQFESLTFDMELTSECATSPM
Receptor-type tyrosine-protein kinase FLT3 (Homo sapiens), sequence (P36888 whole entry): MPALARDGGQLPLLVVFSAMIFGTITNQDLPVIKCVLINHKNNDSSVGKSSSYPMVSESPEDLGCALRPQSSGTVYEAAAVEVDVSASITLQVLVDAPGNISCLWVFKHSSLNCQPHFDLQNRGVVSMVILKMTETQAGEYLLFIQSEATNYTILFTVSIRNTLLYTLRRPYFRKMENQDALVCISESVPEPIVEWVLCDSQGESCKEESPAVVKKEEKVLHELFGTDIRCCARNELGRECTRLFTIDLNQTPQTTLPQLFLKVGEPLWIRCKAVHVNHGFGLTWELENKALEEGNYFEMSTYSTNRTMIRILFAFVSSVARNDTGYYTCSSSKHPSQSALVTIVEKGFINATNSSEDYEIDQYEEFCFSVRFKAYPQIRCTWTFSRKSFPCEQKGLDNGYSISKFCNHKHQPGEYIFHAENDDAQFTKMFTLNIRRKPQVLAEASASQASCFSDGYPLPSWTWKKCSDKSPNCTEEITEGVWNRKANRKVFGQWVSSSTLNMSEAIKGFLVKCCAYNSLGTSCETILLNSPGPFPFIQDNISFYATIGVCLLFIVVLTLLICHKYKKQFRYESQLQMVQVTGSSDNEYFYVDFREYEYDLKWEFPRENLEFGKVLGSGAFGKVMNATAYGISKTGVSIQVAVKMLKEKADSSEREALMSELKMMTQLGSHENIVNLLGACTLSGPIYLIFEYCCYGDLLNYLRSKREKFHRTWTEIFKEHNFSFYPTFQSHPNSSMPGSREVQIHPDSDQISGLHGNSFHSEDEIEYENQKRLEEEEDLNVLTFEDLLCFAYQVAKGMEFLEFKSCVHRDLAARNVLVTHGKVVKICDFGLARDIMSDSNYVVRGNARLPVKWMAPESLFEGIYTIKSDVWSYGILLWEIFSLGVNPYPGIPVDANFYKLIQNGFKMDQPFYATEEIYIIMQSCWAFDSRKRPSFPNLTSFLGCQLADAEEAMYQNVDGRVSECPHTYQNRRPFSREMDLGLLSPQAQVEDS
Non-receptor tyrosine-protein kinase TYK2 (Homo sapiens), sequence (P29597 whole entry): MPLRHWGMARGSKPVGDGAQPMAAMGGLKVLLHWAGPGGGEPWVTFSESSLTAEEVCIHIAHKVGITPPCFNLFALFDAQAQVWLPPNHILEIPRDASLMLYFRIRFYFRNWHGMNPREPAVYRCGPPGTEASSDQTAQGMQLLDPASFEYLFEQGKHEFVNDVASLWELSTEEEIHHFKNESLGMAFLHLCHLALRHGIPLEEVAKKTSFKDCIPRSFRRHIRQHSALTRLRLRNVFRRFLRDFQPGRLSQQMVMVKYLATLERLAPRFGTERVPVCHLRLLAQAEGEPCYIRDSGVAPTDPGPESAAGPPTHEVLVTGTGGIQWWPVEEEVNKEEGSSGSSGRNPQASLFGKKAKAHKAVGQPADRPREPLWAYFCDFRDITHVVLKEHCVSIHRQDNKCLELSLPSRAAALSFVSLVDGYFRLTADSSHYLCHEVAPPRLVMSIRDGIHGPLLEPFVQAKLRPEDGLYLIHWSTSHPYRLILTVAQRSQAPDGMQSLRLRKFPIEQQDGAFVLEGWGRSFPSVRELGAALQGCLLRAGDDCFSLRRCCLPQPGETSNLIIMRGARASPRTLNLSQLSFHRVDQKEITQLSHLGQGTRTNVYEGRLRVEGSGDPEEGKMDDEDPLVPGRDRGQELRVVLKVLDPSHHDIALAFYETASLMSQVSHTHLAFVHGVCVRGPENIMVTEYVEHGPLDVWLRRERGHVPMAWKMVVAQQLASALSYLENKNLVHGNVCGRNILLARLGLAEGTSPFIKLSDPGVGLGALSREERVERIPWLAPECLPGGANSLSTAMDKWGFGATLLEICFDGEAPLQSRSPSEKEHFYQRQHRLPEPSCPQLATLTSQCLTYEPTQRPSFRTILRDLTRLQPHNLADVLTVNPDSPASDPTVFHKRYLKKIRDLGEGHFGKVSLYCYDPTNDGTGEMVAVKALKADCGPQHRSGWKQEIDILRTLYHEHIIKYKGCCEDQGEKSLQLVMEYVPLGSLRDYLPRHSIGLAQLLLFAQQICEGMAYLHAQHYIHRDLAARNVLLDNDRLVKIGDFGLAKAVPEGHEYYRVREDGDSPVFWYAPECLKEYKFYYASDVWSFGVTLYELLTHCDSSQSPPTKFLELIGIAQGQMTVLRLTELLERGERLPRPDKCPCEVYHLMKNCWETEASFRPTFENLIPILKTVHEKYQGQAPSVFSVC

| Compound | GI50 [3] [µM] | GI50 [7] [µM] | IC50 [9] [nM] | GI50 [11] [nM] | Activity [14] | GI50 [16] [nM] | Activity [17] | Activity [19] | IC50 [20] [nM] | Activity [24] | Activity [27] | further results |
| --- | --- | --- | --- | --- | --- | --- | --- | --- | --- | --- | --- | --- |
| COc1nn(C)cc1Nc1ncc2scc(-c3cccc(NC(=O)[C@@H](C)N4CCN(C)CC4)c3)c2n1 | 2.46 | 6.81 | 4030 | 447 | Active | 1450 | Active | Active | 3580 | Active | Active | inhibition at 10 µM [1]: 100%; inhibition at 10 µM [2]: 100%; inhibition [4]: Dose-dependent-effect; inhibition [5]: 82.5%; inhibition [6]: Dose-dependent-effect; Activity [8]: Active; inhibition [10]: 83.7%; inhibition [12]: 15.5%; Activity [13]: Active; Activity [15]: Active; Activity [18]: Active; Activity [21]: Active; inhibition [22]: 61.8%; Activity [23]: Active; inhibition [25]: 18.1%; Activity [26]: Active; Activity [28]: Active |
| COc1nn(C)cc1Nc1nccc(-c2c[nH]c3c(NC(=O)[C@@H](C)N4CCN(C)CC4)cccc23)n1 [GOLIDOCITINIB] | 36.7 | 40.2 | 1920 | 514 | Active | 3670 | Active | Active | 613 | Active | Active | inhibition [29]: Active; IC50 [30]: 82 nM; inhibition [31]: Active |
